Data taken from publication PMC12281475, “Mediator Kinase Inhibitor Selectivity and Activity in Colorectal Cancer” (ACS Chemical Biology, 2025).

Test system: COLO205 cells
Test: Phospho-proteome profiling (CDK-motif antibody enrichment, LC-MS/MS)
Assay type: cell-based, human
Settings: 6 H
Text: We phospho-proteome profiled COLO205 cells to identify Mediator kinase substrates following chemical inhibition of Mediator kinase activity. Given the confirmed CDK8/19 selectivity of our compounds in binding and enzymatic activity assays, we employed a pool of antibodies selective for the proline-rich motifs phosphorylated by the CDK family to enrich potential CDK8/19 substrates for LC-MS/MS analysis.
Adherent COLO205 cells were lysed with a urea buffer, lysates were reduced with DTT, alkylated with iodoacetimide and digested with trypsin-tosylphenylalanyl chloromethyl ketone. Digested peptides were immunoprecipitated using a pool of motif antibodies from Cell Signaling Technologies (US) comprising: phospho-MAPK substrate (PXS*P or S*PXR/K, #2325, RRID:AB_331820), phospho-CDKs substrate ((K/H)-S*P, #2324; RRID:AB_2244779), phospho-PLK binding motif (ST*P, #5243; RRID:AB_10891778) and phospho-tPE motif (T*PE, #3004; RRID:AB_10890649)-of phospho-MAPK (2325), phospho-CDK (2324), phospho-PLK (5243) and phospho-tPE (C3004) motif-recognizing antibodies immobilized onto protein A/G beads. Immunoprecipitated peptides were analyzed using an LTQ-Orbitrap-Velos. Sequences were assigned to the MS/MS spectra and evaluated using SEQUEST 3G and SORCERER 2 (Sage-N Research v4.0, Milpitas). Quantitative data was evaluated and clustered in Spotfire Decision Site (www.spotfire.tibco.com) and normalized using quartile normalization. Functional annotation and pathway analysis used DAVID (https://david.ncifcrf.gov/). […]
Phospho-proteome analyses
Adherent COLO205 cells were washed with PBS and cells lysed using urea lysis buffer (9 M Urea, 20 mM HEPES, pH 8.0, 1 mM beta-glycerophosphate, 1 mM sodium vanadate, 2.5 mM sodium pyrophosphate) and stored at -80 °C prior to analysis. The supernatants were reduced with 100 mM DTT for 30 minutes at 55 °C, followed by alkylation with 50 mM iodoacetimide for 15 minutes at ambient temperature in the dark.
The samples were diluted in 20 mM HEPES, pH 8.0 and digested overnight with 10 ug/mL trypsin-tosylphenylalanyl chloromethyl ketone in 1 mM HCl. Digested peptides were acidified with 1% formic acid and then desalted over 360-mg SEP PAK C18 columns (Waters, UK). Peptides were eluted with 40% acetonitrile in 0.125% formic acid, dried under a vacuum and the lyophilised peptides used for immunoprecipitation.
A pool of motif antibodies from Cell Signaling Technologies (US) comprising: phospho-MAPK substrate (PXS*P or S*PXR/K, #2325, RRID:AB_331820), phospho-CDKs substrate ((K/H)S*P, #2324; RRID:AB_2244779), phospho-PLK binding motif (ST*P, […]
RRID:AB_10890649), were immobilised onto protein A/G beads overnight at 4 °C. The lyophilised peptides were resuspended in MOPS buffer (50 mM MOPS, pH 7.2, 10 mM KH2PO4, 50 mM NaCl) and centrifuged for 5 mins at 13,500 rpm in an Eppendorf benchtop microcentrifuge. The supernatants were incubated with the motif-bound beads for 2.5 hours at 4 °C . The beads were harvested by centrifugation at 4000 rpm in an Eppendorf benchtop microcentrifuge for 5 mins, washed with MOPS buffer twice and washed again 5 times with deionised water. The peptides were eluted off the beads using 0.125% formic acid, were desalted and dried under a vacuum. The lyophilised immunoprecipitated peptides were resuspended in 0.125% formic acid and separated on a capillary column packed with Magic C18 AQ reversed-phase resin.
Peptides were eluted using a 72-minute linear gradient of acetonitrile in 0.125% formic acid delivered at 280nL/min. Samples were analysed using an LTQ-Orbitrap-Velos.
MS Parameter Settings were: MS Run Time 96 min, MS1 Scan Range (300.0 – 1500.00), Top 20 MS/MS (Min Signal 500, Isolation Width 2.0, Normalized Coll.
Charge State Rejection Enabled, Charge State 1+ Rejected, Dynamic Exclusion Enabled, Repeat Count 1, Repeat Duration 35.0, Exclusion List Size 500, Exclusion Duration 40.0, Exclusion Mass Width Relative to Mass, Exclusion Mass Width 10ppm). […]

[1] = RACGAP1 peptide 572 - vsllgpvTTpehqllkTpSSSSlsqr - 597
[2] = RB1 peptide 788 - spykfpsSplripggniYisplkSpykiseglptptk - 824
[3] = RB1 peptide 792 - fpSSplripggniyiSplkSpYkiseglptpTk - 824
[4] = SEMA6A peptide 745 - adqhhldltalpTpestptlqqk - 767
[5] = SH3RF1 peptide 682 - ivtvlpglpTSpdsassacgnssatkpdkdsk - 713
[6] = SPEN peptide 188 - SrSpnrfdahdpr - 200
[7] = STAT1 peptide 716 - lqttdnllpmsSpeefdevsr - 736
[8] = TACC2 peptide 8/2304 - mkkTpekldntpaSpprSpaepndipiak - 36/2332
[9] = TANC2 peptide 1556 - sqSgspvryqqetsvsqlpgrpksplsSk - 1583
[10] = TASOR peptide 969 - qrSSdYqfpSSpftdtlk - 986
[11] = TASOR peptide 971- ssdyqfpSspftdtlk - 986
[12] = TASOR peptide 971 - ssdyqfpsSpftdtlk - 986
[13] = TBC1D10B peptide 686 - asagpapgpvvtaeglhpslpSptgnsTplgssk - 718
[14] = TBC1D23 peptide 505- visfientsTpvdr - 518
[15] = TFEB peptide 406 - edegppgypeplapghgSpfpslsk - 430
[16] = TGS1 peptide 290 - vdlvsfpsSpimvdndssgtsdkdhseildgisnik - 325
[17] = TLE3 peptide 282 - daptspasvassssTpssk - 300
[18] = TMPO peptide 151 - eqgteSrssTplptisssaentr - 173
[19] = TNRC18 peptide 1230 - vdSpgrTepcTaaldlgvqlTpeTlveak -1258
[20] = TUT1 peptide 273 - apespSldsalaSpldpqa - 293l
[21] = UBR5 peptide 634 - rsTpapkeeekvneeqwslr -653
[22] = WAC peptide 455 - iStpqtntvpikplisTppvsSqpk - 479
[23] = ZC3H13 peptide 1206 - lrSpSndsahr - 1216
[24] = ZMYM4 peptide 1085 - dqgstysgdleseavStphsweeelnhyalk -1115
[25] = ZMYND8 peptide 278/423 - rislsdmprSpmstnssvhtgsdveqdaekk - 307/452
[26] = ZNF687 peptide 123 - mqngfgSpepslpgtphSpappSggtwk - 150

## Cn1cc(-c2ccc(-c3cncc(Cl)c3N3CCC4(CCNC4=O)CC3)cc2)cn1 [CCT251545]
[1]
  CMPD 1/DMSO: 0.557
  MEAN MS SIGNAL CMPD 1 6 H: 38518
[2]
  CMPD 1/DMSO: 1.786
  MEAN MS SIGNAL CMPD 1 6 H: 21423
[3]
  CMPD 1/DMSO: 1.780
  MEAN MS SIGNAL CMPD 1 6 H: 52675
[4]
  CMPD 1/DMSO: 2.360
  MEAN MS SIGNAL CMPD 1 6 H: 62365
[5]
  CMPD 1/DMSO: 0.610
  MEAN MS SIGNAL CMPD 1 6 H: 121720
[6]
  CMPD 1/DMSO: 2.092
  MEAN MS SIGNAL CMPD 1 6 H: 88908
[7]
  CMPD 1/DMSO: 0.357
  MEAN MS SIGNAL CMPD 1 6 H: 223699
[8]
  CMPD 1/DMSO: 0.521
  MEAN MS SIGNAL CMPD 1 6 H: 16068
[9]
  CMPD 1/DMSO: 3.615
  MEAN MS SIGNAL CMPD 1 6 H: 175022
[10]
  CMPD 1/DMSO: 0.437
  MEAN MS SIGNAL CMPD 1 6 H: 47745
[11]
  CMPD 1/DMSO: 0.316
  MEAN MS SIGNAL CMPD 1 6 H: 116521
[12]
  CMPD 1/DMSO: 0.406
  MEAN MS SIGNAL CMPD 1 6 H: 489288
[13]
  CMPD 1/DMSO: 0.515
  MEAN MS SIGNAL CMPD 1 6 H: 63051
[14]
  CMPD 1/DMSO: 0.544
  MEAN MS SIGNAL CMPD 1 6 H: 230940
[15]
  CMPD 1/DMSO: 0.596
  MEAN MS SIGNAL CMPD 1 6 H: 1352019
[16]
  CMPD 1/DMSO: 0.563
  MEAN MS SIGNAL CMPD 1 6 H: 156101
[17]
  CMPD 1/DMSO: 2.152
  MEAN MS SIGNAL CMPD 1 6 H: 35775
[18]
  CMPD 1/DMSO: 2.220
  MEAN MS SIGNAL CMPD 1 6 H: 19216
[19]
  CMPD 1/DMSO: 0.311
  MEAN MS SIGNAL CMPD 1 6 H: 69822
[20]
  CMPD 1/DMSO: 2.097
  MEAN MS SIGNAL CMPD 1 6 H: 41046
[21]
  CMPD 1/DMSO: 0.456
  MEAN MS SIGNAL CMPD 1 6 H: 139720
[22]
  CMPD 1/DMSO: 0.617
  MEAN MS SIGNAL CMPD 1 6 H: 154581
[23]
  CMPD 1/DMSO: 1.804
  MEAN MS SIGNAL CMPD 1 6 H: 405976
[24]
  CMPD 1/DMSO: 0.475
  MEAN MS SIGNAL CMPD 1 6 H: 46592
[25]
  CMPD 1/DMSO: 0.617
  MEAN MS SIGNAL CMPD 1 6 H: 23551
[26]
  CMPD 1/DMSO: 0.458
  MEAN MS SIGNAL CMPD 1 6 H: 22069
